Bounds are passed on as bounds.

Sequence of SMYD3 (Q9H7B4 whole entry): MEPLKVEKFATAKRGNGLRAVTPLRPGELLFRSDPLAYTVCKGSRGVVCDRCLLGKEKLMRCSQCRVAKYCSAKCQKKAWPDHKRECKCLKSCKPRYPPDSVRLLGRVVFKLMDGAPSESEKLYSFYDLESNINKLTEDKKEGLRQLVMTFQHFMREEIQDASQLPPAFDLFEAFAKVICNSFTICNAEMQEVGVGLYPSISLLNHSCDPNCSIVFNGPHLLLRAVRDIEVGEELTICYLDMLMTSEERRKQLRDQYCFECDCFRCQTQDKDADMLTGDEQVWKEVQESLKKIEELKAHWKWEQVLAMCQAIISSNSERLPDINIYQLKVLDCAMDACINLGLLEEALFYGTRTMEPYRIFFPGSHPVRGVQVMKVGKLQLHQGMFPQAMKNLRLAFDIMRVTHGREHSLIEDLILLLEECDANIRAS

One test concerns the target SMYD3 (Homo sapiens (Human), UniProt Q9H7B4). Briefly: SMYD3 biochemical assay (SMYD3 enzyme assay on MEKK2 protein substrate, 3H-SAM scintillation proximity assay). Particulars: Table 1A; average of n = 1 to n = 50; read-out: SMYD3 Biochem IC50. The text has this:
S-adenosylmethionine (SAM), S-adenosylhomocysteine (SAH), Tris, Tween20, dimethylsulfoxide (DMSO), bovine skin gelatin (BSG), and Tris(2-carboxyethyl)phosphine hydrochloride solution (TCEP) were purchased from Sigma-Aldrich at the highest level of purity possible. ^3H-SAM was purchase from American Radiolabeled Chemicals with a specific activity of 80 Ci/mmol. 384-well opaque white OptiPlates and SPA beads (Perkin Elmer, catalog # RPNQ0013) were purchased from PerkinElmer.
N-terminally GST-tagged MEKK2 (MAP3K2) protein corresponding to reference sequence AAF63496.3 was purchased from Life Technologies (catalog # PV4010). This protein was expressed in High Five insect cells and purified to >85% purity. Protein identity was confirmed by MS/MS analysis after proteolytic digestion. The protein sequence used was:
Full-length human SMYD3 isoform 1 (BAB86333) was inserted into a modified pET21b plasmid containing a His6 tag and TEV and SUMO cleavage sites.
E. coli (BL21 codonplus RIL strain, Stratagene) were transformed with plasmid pEPZ553 by mixing competent cells and plasmid DNA and incubating on ice for 30 minutes followed by heat shock at 42° C. for 1 minute and cooling on ice for 2 minutes. Transformed cells were grown and selected on LB agar with 100 μg/mL ampicillin and 17 μg/mL chloramphenicol at 37° C. overnight. A single clone was used to inoculate 200 mL of LB medium with 100 μg/mL ampicillin and 17 μg/mL chloramphenicol and incubated at 37° C. on an orbital shaker at 180 rpm. Once in log growth, the culture was diluted 1:100 into 2 L of LB medium and grown until OD600 was about 0.3 after which the culture was incubated at 15° C. and 160 rpm. Once OD600 reached about 0.4, IPTG was added to a final concentration of 0.1 mM and the cells were grown overnight at 15° C. and 160 rpm. Cells were harvested by centrifugation at 8000 rpm, for 4 minutes at 4° C. and stored at −80° C. for purification.
The column was washed with Buffer B (Buffer A plus 20 mM imidazole) and His-tagged SMYD3 was eluted with Buffer C (Buffer A plus 300 mM imidazole). The His tag, TEV and SUMO cleavage sites were removed generating native SMYD3 by addition of ULP1 protein at a ratio of 1:200 (ULP1:SMYD3). Imidazole was removed by dialysis overnight in Buffer A. The dialyzed solution was applied to a second Nickel column and the native SMYD3 protein was collected from the column flow-through. The flow-through was dialyzed in Buffer D (25 mM Tris, 5% glycerol, 5 mM β-mercaptoethanol, 50 mM NaCl, pH7.8) and ULP1 was removed using a Q sepharose fast flow column.
General Procedure for SMYD3 Enzyme Assays on MEKK2 Protein Substrate
The assays were all performed in a buffer consisting of 25 mM Tris-Cl pH 8.0, 1 mM TCEP, 0.005% BSG, and 0.005% Tween 20, prepared on the day of use. […] DMSO (1 ul) was added to Columns 11, 12, 23, 24, rows A-H for the maximum signal control and 1 ul of SAH, a known product and inhibitor of SMYD3, was added to columns 11, 12, 23, 24, rows I-P for the minimum signal control. A cocktail (40 ul) containing the SMYD3 enzyme was added by Multidrop Combi (Thermo-Fisher). The compounds were allowed to incubate with SMYD3 for 30 min at room temperature, then a cocktail (10 ul) containing SAM and MEKK2 was added to initiate the reaction (final volume=51 ul). […] The assays were stopped by the addition of non-radiolabeled SAM (10 ul) to a final concentration of 100 uM, which dilutes the ^3H-SAM to a level where its incorporation into MEKK2 is no longer detectable. Radiolabeled MEKK2 was detected using a scintillation proximity assay (SPA). 10 uL of a 10 mg/mL solution of SPA beads in 0.5 M citric acid was added and the plates centrifuged at 600 rpm for 1 min to precipitate the radiolabeled MEKK2 onto the SPA beads.
Regarding `CCc1nnc(C(=O)N[C@H]2CC[C@H](NC(=O)CCN)CC2)[nH]1` [compound 536, N-((1r,4r)-4-(3-aminopropanamido)cyclohexyl)-5-ethyl-4H-1,2,4-triazole-3-carboxamide], the half-inhibitory concentration (IC50) was over 50 µM.

As to `C[C@@H]1C[C@@H](NC(=O)c2ccccc2)CCN1S(=O)(=O)CCCN` (racemic) [compound 563, (±)-trans-N-(1-((3-aminopropyl)sulfonyl)-2-methylpiperidin-4-yl)benzamide], the half-maximal inhibitory concentration (IC50) is over 10 µM.

On to `CC(NC(=O)c1cc(Cl)[nH]n1)C1CCN(C(=O)[C@H](C)N)CC1` (stereo partly drawn) [compound 527, N-(1-(1-(L-alanyl)piperidin-4-yl)ethyl)-5-chloro-1H-pyrazole-3-carboxamide], for which the half-maximal inhibitory concentration (IC50) is over 50 µM. As to `O=C(NC1CCN(C(=O)CC2CCNCC2)CC1)c1nnc[nH]1` [compound 547, N-(1-(2-(piperidin-4-yl)acetyl)piperidin-4-yl)-4H-1,2,4-triazole-3-carboxamide], the 50% inhibitory concentration (IC50) is over 50 µM. Still for that read-out and setting: to `Cc1ncc(C(=O)N[C@H]2CC[C@H](N)CC2)[nH]1` [compound 522, N-((1r,4r)-4-aminocyclohexyl)-2-methyl-1H-imidazole-5-carboxamide] belongs over 50 µM.

The same test, now with this note: read-out: SMYD3 Biochem IC50.
With `Cc1ncc(C(=O)NC(C)C2CCN(C(=O)[C@H](C)N)CC2)cn1` (stereo partly drawn) [compound 183, N-(1-(1-(L-alanyl)piperidin-4-yl)ethyl)-2-methylpyrimidine-5-carboxamide], the IC50 was over 100 µM. With `NCCC(=O)N[C@H]1CC[C@H](NC(=O)c2nc3ccccc3s2)CC1` [compound 427, N-((1r,4r)-4-(3-aminopropanamido)cyclohexyl)benzo[d]thiazole-2-carboxamide], the IC50 was over 100 µM. Consider `NCCC(=O)N[C@H]1CC[C@H](NC(=O)Cc2cncnc2)CC1` [compound 364, 3-amino-N-((1r,4r)-4-(2-(pyrimidin-5-yl)acetamido)cyclohexyl)propanamide], for which the IC50 is over 100 µM. On the same count and under the same terms, the same measure for `NCCC(=O)N[C@H]1CC[C@H](NC(=O)C2=NNC(=O)CC2)CC1` [compound 481, N-((1r,4r)-4-(3-aminopropanamido)cyclohexyl)-6-oxo-1,4,5,6-tetrahydropyridazine-3-carboxamide]: 15.1 µM. On the same count and under the same terms, to `Cn1nc(C(C)(C)C)cc1C(=O)N[C@H]1CC[C@H](N)CC1` [compound 352, N-((1r,4r)-4-aminocyclohexyl)-3-(tert-butyl)-1-methyl-1H-pyrazole-5-carboxamide] belongs over 100 µM. As to `N[C@H]1CC[C@H](NC(=O)c2cnc3ccccc3n2)CC1` [compound 405, N-((1r,4r)-4-aminocyclohexyl)quinoxaline-2-carboxamide], the half-maximal inhibitory concentration (IC50) was over 100 µM. Turning to `CC(NC(=O)c1nc2ccc(F)cc2s1)C1CCN(C(=O)[C@H](C)N)CC1` (stereo partly drawn) [compound 498, N-(1-(1-(L-alanyl)piperidin-4-yl)ethyl)-6-fluorobenzo[d]thiazole-2-carboxamide], the IC50 amounted to 51 µM. With `NCCC(=O)N[C@H]1CC[C@H](NC(=O)c2ccncc2F)CC1` [compound 390, N-((1r,4r)-4-(3-aminopropanamido)cyclohexyl)-3-fluoroisonicotinamide], the IC50 is over 100 µM. Consider `NCCC(=O)N[C@H]1CC[C@H](NC(=O)c2ccc(-n3cnnc3)cc2)CC1` [compound 329, N-((1r,4r)-4-(3-aminopropanamido)cyclohexyl)-4-(4H-1,2,4-triazol-4-yl)benzamide], for which the IC50 is over 100 µM.

For the compound `CC(NC(=O)c1ccc2cc[nH]c2c1)C1CCN(C(=O)[C@H](C)N)CC1` (stereo partly drawn) [compound 368, N-(1-(1-(L-alanyl)piperidin-4-yl)ethyl)-1H-indole-6-carboxamide], the concentration for half-maximal inhibition (IC50) turned out to be 12.3 µM.

With `NCCC(=O)N[C@H]1CC[C@H](NC(=O)c2ccc3c(c2)CC(=O)N3)CC1` [compound 471, N-((1r,4r)-4-(3-aminopropanamido)cyclohexyl)-2-oxoindoline-5-carboxamide], the half-inhibitory concentration (IC50) came out at 0.61 µM. As to `COc1ccc2cc(C(C)C(=O)NC(C)C3CCN(C(=O)[C@H](C)N)CC3)ccc2c1` (stereo partly drawn) [compound 334, N-(1-(1-(L-alanyl)piperidin-4-yl)ethyl)-2-(6-methoxynaphthalen-2-yl)propanamide], the 50% inhibitory concentration (IC50) was determined as 34.9 µM. For `NCCC(=O)N[C@H]1CC[C@H](NC(=O)c2ccc(O)nc2)CC1` [compound 294, N-((1r,4r)-4-(3-aminopropanamido)cyclohexyl)-6-hydroxynicotinamide], the IC50 was over 100 µM. On to `CC(NC(=O)c1cncnc1N)C1CCN(C(=O)[C@H](C)N)CC1` (stereo partly drawn) [compound 419, N-(1-(1-(L-alanyl)piperidin-4-yl)ethyl)-4-aminopyrimidine-5-carboxamide], for which the IC50 is over 100 µM.

Staying with this test, now noted: read-out: SMYD3 Biochem IC50 (μM)*.
With `NCCC(=O)N[C@H]1CC[C@H](NC(=O)c2nccnc2N)CC1` [compound 152, 3-amino-N-((1r,4r)-4-(3-aminopropanamido)cyclohexyl)pyrazine-2-carboxamide], the half-maximal inhibitory concentration (IC50) was over 100 µM. `N[C@H]1CC[C@H](NC(=O)c2ccc3c(c2)OCO3)CC1` [compound 148, N-((1r,4r)-4-aminocyclohexyl)benzo[d][1,3]dioxole-5-carboxamide]: the concentration for half-maximal inhibition (IC50) was over 100 µM.

Take `Cc1n[nH]c(C)c1C(=O)NC(C)C1CCN(C(=O)[C@H](C)N)CC1` (stereo partly drawn) [compound 180, N-(1-(1-(L-alanyl)piperidin-4-yl)ethyl)-3,5-dimethyl-1H-pyrazole-4-carboxamide]: the IC50 is over 100 µM. As to `CCCCC1CC1C(=O)N[C@H]1CC[C@H](N)CC1` (stereo partly shown) [compound 53, N-((1r,4r)-4-aminocyclohexyl)-2-butylcyclopropane-1-carboxamide], the half-maximal inhibitory concentration (IC50) worked out at 122 µM. Regarding `CCc1cccc(C(=O)N[C@H]2CC[C@H](N)CC2)c1` [compound 21, N-((1r,4r)-4-aminocyclohexyl)-3-ethylbenzamide], the IC50 came to 57.5 µM. With `CC(NC(=O)c1ccc2cc(N)ccc2c1)C1CCN(C(=O)[C@H](C)N)CC1` (stereo partly drawn) [compound 97, N-(1-(1-(L-alanyl)piperidin-4-yl)ethyl)-6-amino-2-naphthamide], the IC50 came out at 146 µM. Turning to `NCCC(=O)NC1CCC(NC(=O)c2ccc3c(c2)CC(=O)N3)CC1` (stereo not shown) [compound 130, N-(4-(3-aminopropanamido)cyclohexyl)-2-oxoindoline-5-carboxamide], the IC50 came out at 0.29 µM.

In the case of `C[C@H](N)C(=O)N1CC[C@H](CNC(=O)c2ccc3c(c2)CC(=O)N3)C1` [compound 135, N-(((R)-1-(L-alanyl)pyrrolidin-3-yl)methyl)-2-oxoindoline-5-carboxamide], the 50% inhibitory concentration (IC50) amounted to 13.6 µM. In the case of `N[C@@H](Cc1ccc(O)cc1)C(=O)N1CCC(NC(=O)c2ccc3c(c2)CC(=O)N3)CC1` [compound 49, N-(1-(L-tyrosyl)piperidin-4-yl)-2-oxoindoline-5-carboxamide], the IC50 came out at 0.86 µM. As for `Nc1nc(C(=O)NC(c2ccccc2)C2CCNCC2)co1` (stereo not shown) [compound 80, 2-amino-N-(phenyl(piperidin-4-yl)methyl)oxazole-4-carboxamide], the half-inhibitory concentration (IC50) turned out to be 97.1 µM. With `CCc1ncc(C(=O)N[C@H]2CC[C@H](N)CC2)s1` [compound 59, N-((1r,4r)-4-aminocyclohexyl)-2-ethylthiazole-5-carboxamide], the half-inhibitory concentration (IC50) came out at 184 µM. Still for that read-out and setting: to `NCCC(=O)N[C@H]1CC[C@H](NC(=O)c2cncc(F)c2)CC1` [compound 158, N-((1r,4r)-4-(3-aminopropanamido)cyclohexyl)-5-fluoronicotinamide] belongs over 100 µM.

(Values after patent US10266526B2, “Substituted 1,2,3-triazoles as SMYD inhibitors for treating cancer” (EPIZYME, INC., priority 2014, dated 2019).)
